IC50 data for 18 compounds are collected here from patent publication US8420657B2 (Novartis AG, priority 2008, dated 2013).

pIC50: −log10 of the molar value. Some results are limits rather than exact numbers.

One assay deals with T1, GST-JAK2(808-1132) (Homo sapiens, UniProt O60674).
T1 construct: GST-JAK2(808-1132); purchased Invitrogen (Carlsbad, USA) #4288
As to the kind of experiment: JAK2 kinase assay (Caliper mobility shift, LabChip 3000). Type of assay: biochemical. The gist of the method:
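Eight-point compound series (final 10–0.003 μM) tested on purchased GST-JAK2 kinase domain (808-1132). Peptide FITC-JAK3tide plus ATP reacted 60 min, 30 °C, then quenched with EDTA; turnover from charge-based separation of substrate and product.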

The test system of assay [1] is JAK2-dependent nuclear translocation of STAT5-GFP in U-2 OS osteosarcoma cells. The assay can be described thus: STAT5 nuclear translocation assay (Cellomics), rhEpo stimulated U-2 OS STAT5-GFP cells. Type of assay: cell-based. Conditions: Homo sapiens, U2OS; STAT5 translocation pathway. In a few lines:
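U-2 OS cells stably expressing STAT5a-GFP and EpoR pre-treated with compound (final 10 μM to 0.003 μM, 0.1% DMSO) for 30 min at 37° C., then stimulated 1 h with 5 U/ml rhEpo. Nuclear-cytoplasmic GFP differential quantified by automated imaging (≥1000 cells/well, Hoechst nuclear mask). IC50 from % translocation normalized to untreated and DMSO-stimulated controls.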

T1 sequence (O60674 808-1132): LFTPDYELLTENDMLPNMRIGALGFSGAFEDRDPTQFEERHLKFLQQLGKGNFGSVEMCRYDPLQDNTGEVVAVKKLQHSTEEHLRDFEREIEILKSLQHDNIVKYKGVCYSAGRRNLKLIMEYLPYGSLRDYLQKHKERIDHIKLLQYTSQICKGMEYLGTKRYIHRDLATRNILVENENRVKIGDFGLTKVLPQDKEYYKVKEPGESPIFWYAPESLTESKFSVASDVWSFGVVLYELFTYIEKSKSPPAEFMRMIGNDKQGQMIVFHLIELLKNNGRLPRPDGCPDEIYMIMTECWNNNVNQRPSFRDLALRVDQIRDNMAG

Turning to `Cc1ccc(Nc2ncc3ccn(-c4cc(F)c(CN5CCOCC5)c(F)c4)c3n2)cc1CN1CCNC(C)(C)C1` [Example 385, [7-(3,5-Difluoro-4-morpholin-4-ylmethyl-phenyl)-7H-pyrrolo[2,3-d]pyrimidin-2-yl]-[3-(3,3-dimethyl-piperazin-1-ylmethyl)-4-methyl-phenyl]-amine], the pIC50 was at least 8.52 at GST-JAK2(808-1132) and 7.18 in assay [1].

`Cc1ccc(Nc2ncc3ccn(-c4ccc(C(=O)N5CCOCC5)c(F)c4)c3n2)cc1CN1CCNC(C)(C)C1` [Example 386, (4-{2-[3-(3,3-Dimethyl-piperazin-1-ylmethyl)-4-methyl-phenylamino]-pyrrolo[2,3-d]pyrimidin-7-yl}-2-fluoro-phenyl)-morpholin-4-yl-methanone]: the negative logarithm of the IC50 (pIC50) at GST-JAK2(808-1132) was 6.96; in assay [1], 7.00.

For the compound `Cc1ccc(Nc2ncc3ccn(-c4ccc(S(=O)(=O)NC(C)(C)C)cc4)c3n2)cc1CN1C[C@@H](C)N[C@@H](C)C1` [Example 387, N-tert-Butyl-4-{2-[3-(cis-3,5-dimethyl-piperazin-1-ylmethyl)-4-methyl-phenylamino]-pyrrolo[2,3-d]pyrimidin-7-yl}-benzenesulfonamide], the figures for the pIC50 (on GST-JAK2(808-1132); in assay [1]) were 8.02 and 7.34, respectively.

With `O=C(c1cc(Nc2ncc3ccn(-c4cc(F)c(CN5CCOCC5)c(F)c4)c3n2)ccn1)N1CCNCC1` [Example 390, {4-[7-(3,5-Difluoro-4-morpholin-4-ylmethyl-phenyl)-7H-pyrrolo[2,3-d]pyrimidin-2-ylamino]-pyridin-2-yl}-piperazin-1-yl-methanone], the negative-log IC50 (pIC50) at GST-JAK2(808-1132) is 7.82; in assay [1], 6.98.

For the compound `C[C@@H]1CN(Cc2cc(Nc3ncc4ccn(-c5cc(F)c(CN6CCOCC6)c(F)c5)c4n3)ccn2)C[C@H](C)N1` [Example 391, [7-(3,5-Difluoro-4-morpholin-4-ylmethyl-phenyl)-7H-pyrrolo[2,3-d]pyrimidin-2-yl]-[2-(cis-3,5-dimethyl-piperazin-1-ylmethyl)-pyridin-4-yl]-amine], the negative logarithm of the IC50 (pIC50) at GST-JAK2(808-1132) was 8.31; in assay [1], 6.82.

Turning to `Fc1cc(-n2ccc3cnc(Nc4ccnc(OCC5CCNCC5)c4)nc32)cc(F)c1CN1CCOCC1` [Example 392, [7-(3,5-Difluoro-4-morpholin-4-ylmethyl-phenyl)-7H-pyrrolo[2,3-d]pyrimidin-2-yl]-[2-(piperidin-4-ylmethoxy)-pyridin-4-yl]-amine], the pIC50 is at least 8.52 on GST-JAK2(808-1132) and 7.17 in assay [1].

`Cc1ccc(Nc2ncc3ccn(-c4cc(F)c(CN5CCOCC5)c(F)c4)c3n2)cc1CN1CCC(F)(F)C1` [Example 393, [7-(3,5-Difluoro-4-morpholin-4-ylmethyl-phenyl)-7H-pyrrolo[2,3-d]pyrimidin-2-yl]-[3-(3,3-difluoro-pyrrolidin-1-ylmethyl)-4-methyl-phenyl]-amine]: the negative logarithm of the IC50 (pIC50) at GST-JAK2(808-1132) is 7.89; in assay [1] it was 7.28.

Regarding `Cc1ccc(Nc2ncc3ccn(-c4cc(F)c(CN5CCOCC5)c(F)c4)c3n2)cc1CN1CC(O)C1` [Example 394, 1-{5-[7-(3,5-Difluoro-4-morpholin-4-ylmethyl-phenyl)-7H-pyrrolo[2,3-d]pyrimidin-2-ylamino]-2-methyl-benzyl}-azetidin-3-ol], the pIC50 at GST-JAK2(808-1132) is at least 8.52; in assay [1], 8.80.

As to `Cc1ccc(Nc2ncc3ccn(-c4cc(F)c(CN5CCOCC5)c(F)c4)c3n2)cc1CN1CCN(C)C(=O)C1` [Example 395, 4-{5-[7-(3,5-Difluoro-4-morpholin-4-ylmethyl-phenyl)-7H-pyrrolo[2,3-d]pyrimidin-2-ylamino]-2-methyl-benzyl}-1-methyl-piperazin-2-one], the pIC50 on GST-JAK2(808-1132) is at least 8.52; in assay [1] it was 7.77.

With `CN(C)CCN1CCN(Cc2cc(Nc3ncc4ccn(-c5cc(F)c(CN6CCOCC6)c(F)c5)c4n3)ccn2)CC1` [Example 396, [7-(3,5-Difluoro-4-morpholin-4-ylmethyl-phenyl)-7H-pyrrolo[2,3-d]pyrimidin-2-yl]-{2-[4-(2-dimethylamino-ethyl)-piperazin-1-ylmethyl]-pyridin-4-yl}-amine], the pIC50 on GST-JAK2(808-1132) is at least 8.52; in assay [1], 6.83.

In the case of `CN1CCN(Cc2cc(Nc3ncc4ccn(-c5cc(F)c(CN6CCOCC6)c(F)c5)c4n3)ccn2)CC1=O` [Example 397, 4-{4-[7-(3,5-Difluoro-4-morpholin-4-ylmethyl-phenyl)-7H-pyrrolo[2,3-d]pyrimidin-2-ylamino]-pyridin-2-ylmethyl}-1-methyl-piperazin-2-one], the pIC50 was at least 8.52 at GST-JAK2(808-1132) and 7.89 in assay [1].

Consider `Cc1ccc(Nc2ncc3ccn(-c4cc(F)c(CN5CCOCC5)c(F)c4)c3n2)cc1CN1CCN(CCN(C)C)CC1` [Example 398, [7-(3,5-Difluoro-4-morpholin-4-ylmethyl-phenyl)-7H-pyrrolo[2,3-d]pyrimidin-2-yl]-{3-[4-(2-dimethylamino-ethyl)-piperazin-1-ylmethyl]-4-methyl-phenyl}-amine], for which the negative-log IC50 (pIC50) is at least 8.52 at GST-JAK2(808-1132) and 6.61 in assay [1].

`Cc1ccc(Nc2ncc3ccn(-c4cc(F)c(CN5CCOCC5)c(F)c4)c3n2)cc1CN1CCNCC1=O` [Example 399, 1-{5-[7-(3,5-Difluoro-4-morpholin-4-ylmethyl-phenyl)-7H-pyrrolo[2,3-d]pyrimidin-2-ylamino]-2-methyl-benzyl}-piperazin-2-one]: the pIC50 was at least 8.52 on GST-JAK2(808-1132) and 8.18 in assay [1].

For `OC1CN(Cc2cc(Nc3ncc4ccn(-c5cc(F)c(CN6CCOCC6)c(F)c5)c4n3)ccc2Cl)C1` [Example 400, 1-{2-Chloro-5-[7-(3,5-difluoro-4-morpholin-4-ylmethyl-phenyl)-7H-pyrrolo[2,3-d]pyrimidin-2-ylamino]-benzyl}-azetidin-3-ol], the negative logarithm of the IC50 (pIC50) on GST-JAK2(808-1132) is 8.15; in assay [1], 8.77.

Take `Fc1cc(-n2ccc3cnc(Nc4ccc(Cl)c(CN5CCNCC5)c4)nc32)cc(F)c1CN1CCOCC1` [Example 401, (4-Chloro-3-piperazin-1-ylmethyl-phenyl)-[7-(3,5-difluoro-4-morpholin-4-ylmethyl-phenyl)-7H-pyrrolo[2,3-d]pyrimidin-2-yl]-amine]: the negative logarithm of the IC50 (pIC50) at GST-JAK2(808-1132) is 8.15; in assay [1], 6.86.

For the compound `Fc1cc(-n2ccc3cnc(Nc4ccnc(CN5CCC(F)(F)C5)c4)nc32)cc(F)c1CN1CCOCC1` [Example 402, [7-(3,5-Difluoro-4-morpholin-4-ylmethyl-phenyl)-7H-pyrrolo[2,3-d]pyrimidin-2-yl]-[2-(3,3-difluoro-pyrrolidin-1-ylmethyl)-pyridin-4-yl]-amine], the negative-log IC50 (pIC50) at GST-JAK2(808-1132) is at least 8.52; in assay [1] it was 5.86.

For `COC1CN(Cc2cc(Nc3ncc4ccn(-c5cc(F)c(CN6CCOCC6)c(F)c5)c4n3)ccc2C)C1` [Example 405, [7-(3,5-Difluoro-4-morpholin-4-ylmethyl-phenyl)-7H-pyrrolo[2,3-d]pyrimidin-2-yl]-[3-(3-methoxy-azetidin-1-ylmethyl)-4-methyl-phenyl]-amine], the negative logarithm of the IC50 (pIC50) on GST-JAK2(808-1132) is at least 8.52; in assay [1] it was 8.49.

With `CN1CCN(Cc2cc(Nc3ncc4ccn(-c5ccc(C(=O)N6CCS(=O)(=O)CC6)c(F)c5)c4n3)ccn2)CC1` [Example 406, (1,1-Dioxido-thiomorpholin-4-yl)-(2-fluoro-4-{2-[2-(4-methyl-piperazin-1-ylmethyl)-pyridin-4-ylamino]-pyrrolo[2,3-d]pyrimidin-7-yl}-phenyl)-methanone], the negative logarithm of the IC50 (pIC50) on GST-JAK2(808-1132) was 8.40; in assay [1], below 5.40.

In general, pIC50 refers to the negative decadic logarithm of the IC50, by convention in mol/L.
